Assay [1] addresses Human CB1R (Cannabinoid receptor 1) (Homo sapiens (Human), UniProt P21554). Nature of the assay: CB-1 in vitro cAMP assay (HTRF), inverse agonism. The class given is cell-based. The note with it: mean where tested more than once. From the text: (§1) CB1 and CB2 receptors are Gi-coupled GPCR. Activation of CB1 and CB2 receptors results in a decrease in cAMP production. An inverse agonist of the CB1 or CB2 receptor results in the opposite effect, an increase of cAMP production. The principle of this assay is based on HTRF® technology (Homogeneous Time-Resolved Fluorescence). The method is a competitive immunoassay between native cAMP produced by cells and the cAMP labeled with the fluorophore d2. The tracer binding is quantified by a Mab anti-cAMP labeled with Eu3+TBP-NHS Cryptate (supplied as part of the assay kit). The specific signal (i.e. energy transfer) is inversely proportional to the concentration of cAMP in the standard or sample.
(§2) Human CB1R (Cannabinoid receptor 1) was stably transfected in HEK-293 cells (DiscoveRx, cat: 93-0200C1). Human CB2R (Cannabinoid receptor 2) was stably transfected in HEK-293 cells (DiscoveRx, cat: 93-0201C1). Cell cultures were maintained in media: DMEM (Invitrogen Cat#12430-054) supplemented with 10% HI FBS (Invitrogen Cat#16140-071), 1% L-glutamine (Invitrogen Cat#25030-081), 0.2 mg/ml Hygromycin B (Invitrogen Cat#10687-010), 600 μg/mL G418 (Invitrogen Cat#10131-035), and 1X Penn/Strep (Invitrogen 15140-122). After cell expansion, aliquots were cryo-stored in media containing 5% DMSO (Pierce Cat#20684).
(§3) One day prior to experiments media was warmed to 37° C. and the cryo-stored cells were thawed in a 37° C. water bath. The cells were then added to media (10× volume) and the mixture was centrifuged at 1000 RPM for 5 min. The supernate was removed and the cells were re-suspended in media. A sample of the cell suspension was evaluated on a Cedex XS automated cell counter (Innovatis Systems) to determine viable cells/ml. Additional media was added to the cells to achieve a final cell density of 4E5 cells/mL. The cells were then plated into 384 well PDL white solid bottom plates (Greiner, Cat#781945) at 20 μL per well using a Multidrop (Thermo Scientific). Cells were removed from Row P (location of cAMP standards). Two columns of cells were plated into a clear bottom 384 well PDL coated plate (Greiner, Cat#781944) to view confluence the day of the assay. The cell plates were lidded and stored for 15 minutes in a hood, then transferred to an incubator (37° C., 5% CO2, 95% humidity) overnight.
(§4) DMSO was added to all wells of 384 well V bottom polystyrene plate (Greiner, Cat#781280) except to columns 1 and 13, rows 0 and P and wells M13-M23 and N13-N23. Test compounds (60 μL, 10 mM) were added to Column 1 and 13 (A1 through N1 and A13 through L13). Test compounds were serially diluted 1/3 by transferring and mixing 20 μl sample with 40 μL DMSO.
(§5) DMSO (40 μL) was added to wells of 384 well V bottom polystyrene plate: O2 through O11, M14 through M23, N14 through N23, and O14 through O23. AM630 (also known as [6-iodo-2-methyl-1-[2-(4-morpholinyl)ethyl]-1H-indol-3-yl](4-methoxyphenyl)-methanone, Cayman Chemical, Cat#10006974) (60 μL, 10 mM) was added to 01; and 1-(2,4-dichlorophenyl)-7-[(4-fluorophenyl)methylene]-4,5,6,7-tetrahydro-N-1-piperidinyl-1H-indazole-3-carboxamide (60 μL, 10 mM) was added to N13. The control was serially diluted 1/3 by transferring and mixing 20 μl sample with 40 μL DMSO. This process resulted 11 doses per control, 10 mM to […].
(§6) Cells plated the day prior to the assay in clear bottom plates were viewed on an inverse microscope to ensure confluency in the range of 60-75%. […]
For orientation: Cyclic AMP is a second messenger, typically raised through Gs and lowered through Gi signalling.

Assay [2] addresses Human CB2R (Cannabinoid receptor 2) (Homo sapiens (Human), UniProt P34972). The assay is described as follows: CB-2 in vitro cAMP assay (HTRF), inverse agonism. The class given is cell-based. Conditions: mean where tested more than once.
Excerpt: as §1, §2, §3, §4, §5, §6

Chain of Human CB2R (Cannabinoid receptor 2) (P34972 whole entry): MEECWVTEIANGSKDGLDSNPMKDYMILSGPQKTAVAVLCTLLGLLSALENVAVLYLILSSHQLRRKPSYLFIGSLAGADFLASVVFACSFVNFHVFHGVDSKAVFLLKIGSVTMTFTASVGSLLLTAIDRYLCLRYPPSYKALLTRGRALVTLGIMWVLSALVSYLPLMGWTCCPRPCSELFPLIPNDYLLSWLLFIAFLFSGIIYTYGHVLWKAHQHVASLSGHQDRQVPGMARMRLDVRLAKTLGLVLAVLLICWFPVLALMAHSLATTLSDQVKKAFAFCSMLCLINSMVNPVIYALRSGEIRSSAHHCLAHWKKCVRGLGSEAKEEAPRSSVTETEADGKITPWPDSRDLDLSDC
Chain of Human CB1R (Cannabinoid receptor 1) (P21554 whole entry): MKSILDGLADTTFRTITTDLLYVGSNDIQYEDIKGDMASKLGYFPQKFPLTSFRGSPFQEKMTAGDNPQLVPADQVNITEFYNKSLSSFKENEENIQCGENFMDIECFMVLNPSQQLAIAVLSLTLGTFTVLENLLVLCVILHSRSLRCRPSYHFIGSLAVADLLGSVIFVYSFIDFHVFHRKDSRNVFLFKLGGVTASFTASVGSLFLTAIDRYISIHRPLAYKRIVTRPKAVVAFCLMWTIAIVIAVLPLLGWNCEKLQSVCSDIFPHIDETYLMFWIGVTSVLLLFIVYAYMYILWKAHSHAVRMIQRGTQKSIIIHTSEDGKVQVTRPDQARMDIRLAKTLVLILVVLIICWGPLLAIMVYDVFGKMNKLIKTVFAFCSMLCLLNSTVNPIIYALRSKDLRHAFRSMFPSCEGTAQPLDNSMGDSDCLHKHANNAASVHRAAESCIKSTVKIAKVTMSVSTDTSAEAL

The term EC50 denotes the midpoint of the concentration-response curve. Lower therefore signals higher potency in that assay. On to `OC(c1ccc(Cl)cc1)(c1ccc2nccc(/C=C\c3ccccc3)c2c1)c1cscn1` (mixture of isomers) [Compound 516, (Z)-(4-chlorophenyl)(4-styrylquinolin-6-yl)(thiazol-4-yl)methanol], for which the results for the EC50 in assay [1] and in assay [2] were 3270 nM and 200 nM, respectively. The matching figures for `O=c1cc(CCc2cccc(Cl)c2)c2cc(C(O)(c3ccc(Cl)cc3)c3nccs3)ccc2[nH]1` (stereo not drawn) [Compound 8, 4-(3-chlorophenethyl)-6-((4-chlorophenyl)(hydroxy)(thiazol-2-yl)methyl)quinolin-2(1H)-one]: 876 nM and > 10000 nM. The corresponding values for `Cn1c(=O)cc(CCc2cccc(Cl)c2)c2cc(C(c3ccc(Cl)cc3)c3nccs3)ccc21` (stereo not drawn) [Compound 9, 4-(3-chlorophenethyl)-6-((4-chlorophenyl)(thiazol-2-yl)methyl)-1-methylquinolin-2(1H)-one] are 169 nM and > 10000 nM. The matching figures for `O=c1cc(CCc2cccc(Cl)c2)c2cc(C(c3ccc(Cl)cc3)c3nccs3)ccc2[nH]1` (stereo not drawn) [Compound 11, 4-(3-chlorophenethyl)-6-((4-chlorophenyl)(thiazol-2-yl)methyl)quinolin-2(1H)-one]: 121 nM and > 10000 nM. For `CC(C)(C)OC(=O)N1CC=C(c2cc(=O)[nH]c3ccc(C(c4ccc(Cl)cc4)c4ccc(Cl)cc4)cc23)CC1` [Compound 13, tert-Butyl 4-{6-[bis(4-chlorophenyl)methyl]-2-oxo-1,2-dihydroquinolin-4-yl}-3,6-dihydropyridine-1(2H)-carboxylate], the EC50 in assay [1] was 403 nM; in assay [2] it was > 10000 nM.

Take `O=C(N1CC=C(c2cc(=O)[nH]c3ccc(C(c4ccc(Cl)cc4)c4ccc(Cl)cc4)cc23)CC1)C(F)(F)F` [Compound 14, 6-(bis(4-chlorophenyl)methyl)-4-(1-(2,2,2-trifluoroacetyl)-1,2,3,6-tetrahydropyridin-4-yl)quinolin-2(1H)-one]: the figures for the EC50 in assay [1] and in assay [2] were 254 nM and > 10000 nM, respectively. The corresponding values for `O=c1cc(/C=C/c2cccc(F)c2)c2cc(C(c3ccc(Cl)cc3)c3ccc(Cl)cc3)ccc2[nH]1` [Compound 15, 6-[Bis(4-chlorophenyl)methyl]-4-[(E)-2-(3-fluorophenyl)ethenyl]quinolin-2(1H)-one] are 702 nM and 660 nM. The matching figures for `O=c1cc(/C=C/c2cccc(F)c2)c2cc(C(c3ccc(Cl)cc3)c3ccsc3)ccc2[nH]1` (stereo not drawn) [Compound 16, 6-[(4-Chlorophenyl)(thiophen-3-yl)methyl]-4-[(E)-2-(3-fluorophenyl)ethenyl]quinolin-2(1H)-one]: 83 nM and 90 nM.

As for `O=c1cc(C2=CCN(S(=O)(=O)C(F)(F)F)CC2)c2cc(C(c3ccc(Cl)cc3)c3ccc(Cl)cc3)ccc2[nH]1` [Compound 17, 6-(bis(4-chlorophenyl)methyl)-4-(1-((trifluoromethyl)sulfonyl)-1,2,3,6-tetrahydropyridin-4-yl)quinolin-2(1H)-one], the EC50 worked out at 827 nM in assay [1] and 80 nM in assay [2]. The corresponding values for `O=c1cc(/C=C\c2ccc(C(F)(F)F)cc2)c2cc(C(c3ccc(Cl)cc3)c3cccs3)ccc2[nH]1` (stereo not drawn) [Compound 18, 6-[(4-Chlorophenyl)(thiophen-2-yl)methyl]-4-{(Z)-2-[4-(trifluoromethyl)phenyl]-ethenyl}quinolin-2(1H)-one] are 875 nM and > 10000 nM. Take `O=c1cc(/C=C/c2ccc(C(F)(F)F)cc2)c2cc(C(c3ccc(Cl)cc3)c3cccs3)ccc2[nH]1` (stereo not drawn) [Compound 19, 6-[(4-Chlorophenyl)(thiophen-2-yl)methyl]-4-{(E)-2-[4-(trifluoromethyl)phenyl]-ethenyl}quinolin-2(1H)-one]: the EC50 is 59 nM in assay [1] and > 10000 nM in assay [2]. The matching figures for `O=c1cc(/C=C/c2ccccc2)c2cc(C(c3ccc(Cl)cc3)c3cccs3)ccc2[nH]1` (stereo not drawn) [Compound 21, 6-[(4-Chlorophenyl)(thiophen-2-yl)methyl]-4-[(E)-2-phenylethenyl]quinolin-2(1H)-one]: 4140 nM and > 10000 nM.

As for `O=c1cc(/C=C/c2ccccc2)c2cc(C(c3ccc(Cl)cc3)c3nccs3)ccc2[nH]1` (stereo not drawn) [Compound 25, (E)-6-((4-chlorophenyl)(thiazol-2-yl)methyl)-4-styrylquinolin-2(1H)-one], the EC50 was 816 nM in assay [1] and > 10000 nM in assay [2].

Consider `O=c1cc(/C=C/c2cccc(C(F)(F)F)c2)c2cc(C(c3ccc(Cl)cc3)c3cccs3)ccc2[nH]1` (stereo not drawn) [Compound 26, 6-[(4-Chlorophenyl)(thiophen-2-yl)methyl]-4-{(E)-2-[3-(trifluoromethyl)phenyl]-ethenyl}quinolin-2(1H)-one], for which the EC50 in assay [1] was 333 nM; in assay [2], > 10000 nM.

Take `Cc1ccc(/C=C/c2cc(=O)[nH]c3ccc(C(c4ccc(Cl)cc4)c4cccs4)cc23)cc1` (stereo not drawn) [Compound 27, 6-[(4-Chlorophenyl)(thiophen-2-yl)methyl]-4-[(E)-2-(4-methylphenyl)ethenyl]-quinolin-2(1H)-one]: the EC50 in assay [1] was 443 nM; in assay [2], > 10000 nM. Regarding `O=c1cc(/C=C/c2ccc(C(F)(F)F)cc2)c2cc(C(c3ccc(Cl)cc3)c3ccc(Cl)s3)ccc2[nH]1` (stereo not drawn) [Compound 29, 6-[(4-Chlorophenyl)(5-chlorothiophen-2-yl)methyl]-4-{(E)-2-[4-(trifluoromethyl)phenyl]-ethenyl}quinolin-2(1H)-one], the figures for the EC50 in assay [1] and in assay [2] were 759 nM and > 10000 nM, respectively. In the case of `O=c1cc(/C=C/c2cccc(F)c2)c2cc(C(c3ccc(Cl)cc3)c3ccc(Cl)s3)ccc2[nH]1` (stereo not drawn) [Compound 30, 6-[(4-Chlorophenyl)(5-chlorothiophen-2-yl)methyl]-4-[(E)-2-(3-fluorophenyl)ethenyl]quinolin-2(1H)-one], the EC50 in assay [1] is 1380 nM; in assay [2], > 10000 nM.

As to `O=c1cc(/C=C/c2ccccc2)c2cc(C(c3ccc(Cl)cc3)c3ccc(Cl)s3)ccc2[nH]1` (stereo not drawn) [Compound 31, 6-[(4-Chlorophenyl)(5-chlorothiophen-2-yl)methyl]-4-[(E)-2-phenylethenyl]quinolin-2(1H)-one], the results for the EC50 in assay [1] and in assay [2] were 2280 nM and > 10000 nM, respectively. The matching figures for `O=c1cc(/C=C/c2cccc(F)c2)c2cc(C(c3ccccc3)c3ccc(Cl)cc3)ccc2[nH]1` (stereo not drawn) [Compound 32, 6-[(4-Chlorophenyl)(phenyl)methyl]-4-[(E)-2-(3-fluorophenyl)ethenyl]quinolin-2(1H)-one]: 3200 nM and > 10000 nM. The matching figures for `O=c1cc(/C=C/c2ccc(C(F)(F)F)cc2)c2cc(C(c3ccccc3)c3ccc(Cl)cc3)ccc2[nH]1` (stereo not drawn) [Compound 33, 6-[(4-Chlorophenyl)(phenyl)methyl]-4-{(E)-2-[4-(trifluoromethyl)phenyl]-ethenyl}quinolin-2(1H)-one]: 1210 nM and > 10000 nM. The compound `CC(C)(C)OC(=O)N1CC(CNc2cc(=O)[nH]c3ccc(C(c4ccc(Cl)cc4)c4nccs4)cc23)C1` (stereo not drawn) [Compound 42, tert-Butyl 3-[({6-[(4-chlorophenyl)(1,3-thiazol-2-yl)methyl]-2-oxo-1,2-dihydroquinolin-4-yl}amino)methyl]azetidine-1-carboxylate] had an EC50 in assay [1] of 2330 nM. On the same count and under the same terms, next, `O=c1cc(NCC2CNC2)c2cc(C(c3ccc(Cl)cc3)c3nccs3)ccc2[nH]1` (stereo not drawn) [Compound 43, 4-[(Azetidin-3-ylmethyl)amino]-6-[(4-chlorophenyl)(1,3-thiazol-2-yl)methyl]quinolin-2(1H)-one]: > 10000 nM.
